Assay results taken from US20050009060A1, “Multiplexed multitarget screening method” (priority 2003, published 2005).

Molecular target: 5HT2A receptor (Homo sapiens, UniProt P28223)
Assay: Ca2+i mobilization by autosampling flow cytometry, single cell threshold analysis, Indo-1-loaded cells
Format: cell-based
Conditions: 1 uM serotonin; percent of cells with Ca2+i at least 2 SD above mean of buffer control
Text: Left panel: distribution of Ca^2+i levels measured by intensity ratio, and determination of threshold level as shown by arrow.
A rotated histogram plot of such a response, and of the basal population, is shown in the left panel of FIG. 22, where the Ca^2+i level is shown on the x-axis and the number of cells attaining each Ca^2+i level is on the y-axis. […] The threshold is set by calculating the mean of the Ca^2+i level in the buffer control sample and calculating one (1) or more standard deviations above the mean. The choice to use one or more standard deviations is based on minimizing the error between buffer control samples and fully activated positive control samples. […] A threshold level at two standard deviations above the mean Ca^2+i level is shown by the arrow. Because the single cell flow cytometry as provided herein can analyze samples rapidly, about 100 to 200 cells, or more, can be analyzed in a short period. […] Data analysis is implemented in an automated software algorithm that automatically calculates Chi Square values along with the response frequency for each sample.

Chain of 5HT2A receptor (P28223 whole entry): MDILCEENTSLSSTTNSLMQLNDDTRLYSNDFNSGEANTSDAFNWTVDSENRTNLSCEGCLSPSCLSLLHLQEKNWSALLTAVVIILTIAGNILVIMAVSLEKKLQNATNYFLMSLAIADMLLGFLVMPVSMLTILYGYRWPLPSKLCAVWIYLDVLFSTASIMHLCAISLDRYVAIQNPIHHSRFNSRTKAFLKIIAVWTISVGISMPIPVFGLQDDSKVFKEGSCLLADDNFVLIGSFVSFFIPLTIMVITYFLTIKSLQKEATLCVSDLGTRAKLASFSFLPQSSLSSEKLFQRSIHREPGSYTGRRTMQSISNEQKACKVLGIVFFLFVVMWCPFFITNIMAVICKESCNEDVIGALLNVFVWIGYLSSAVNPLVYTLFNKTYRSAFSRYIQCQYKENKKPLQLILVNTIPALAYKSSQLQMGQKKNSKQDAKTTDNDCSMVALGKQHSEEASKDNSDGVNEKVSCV

NCCc1c[nH]c2ccc(O)cc12 [serotonin]
signal to baseline ratio (stimulated to unstimulated response frequency): over 50
